# Experimental data from patent US20120076785A1, “METHOD FOR INHIBITING NEURODEGENERATION” (GENENTECH, INC., priority 2009, published 2012).
# Where a SMILES comes first, the peptide text is derived from it. The star is where a group is joined. Cbz = O=C(OCc1ccccc1)*; CH2F = FC*
# Columns and labels:
# [1] = test system: commissural neurons; experiment: dorsal spinal cord survival assay (commissural explant cultures); assay type: cell-based, rat
# Method: To examine functional roles of DR6 in axonal degeneration and programmed cell death of commissural neurons, an RNAi-based dorsal spinal cord survival assay (Kennedy et al., Cell, 78:425-435 (1994); Wang et al., supra, 1999) was conducted (see FIG. 3). E13 rat or E11.5 mouse embryos were placed in L15 medium (Gibco) and siRNAs (IDT) together with green fluorescent protein (“GFP”)-encoding plasmids were injected into the neural tubes. The siRNAs and plasmids were then delivered to dorsal progenitor cells by electroporation. Dorsal spinal cord explants were dissected out, embedded into a 3D-collagen gel matrix, and cultured in Opti-MEM/F12 medium (Invitrogen) with recombinant netrin-1 ([…]) and 5% horse serum (Sigma) at 37° C. in a 5% CO2 environment. Within 16 hours in response to chemo-attractant netrin-1, commissural axons grow out of the explant into the collagen matrix gel (Kennedy et al., supra, 1994). Commissural axons are visualized by GFP fluorescence by observation using an inverted microscope.
# Materials and methods used to generate the data shown in this figure are as follows. To investigate physiological roles of DR6 receptor in axonal degeneration and programmed cell death of commissural neurons, a dorsal spinal cord survival assay according to protocols known in the art (Kennedy et al., Cell 78:425-435 (1994); Wang et al., Nature 401:765-769 (1999)) was performed (with data shown in FIG. 4B). E13 rat embryos were placed in L15 medium (Gibco) and injected into their neural tubes with the following siRNA constructs (FIG. 4B):
# Control non-targeting, or targeting DR6 siRNA #2, or targeting DR6 siRNA #3 (IDT) together with either wild-type or mis-match DR6 cDNA and GFP-encoding plasmids. DR6 cDNA and GFP cDNA were subcloned into pCAGGS vector backbone (commercially available from BCCM/LMBP). siRNAs and plasmids were then delivered to dorsal progenitor cells by electroporation. Dorsal spinal cord explants were then dissected out, embedded into a 3D collagen gel matrix and cultured in Opti-MEM/F12 medium (Invitrogen) with recombinant netrin-1 and 5% horse serum (Sigma) at 37° C. in a 5% CO2 environment. Within 16 hours in response to chemo-attractant netrin-1 commissural axons grow out of the explant into the collagen matrix gel (Kennedy et al., Cell 78:425-435 (1994). Commissural axons are visualized by GFP fluorescence by observation using inverted microscope. After 48 hours in culture in the absence of trophic factor support derived from the floorplate, commissural neurons undergo programmed cell death and their axons degenerate (Wang et al., Nature, 401:765-769 (1999)) (FIG. 4B). However, the axonal degeneration program can be blocked by introduction of a targeting DR6-specific siRNA #3 (FIG. 4B). The specific, on-target effect of DR6-specific siRNA #3 is further confirmed in a rescue experiment in which axonal degeneration phenotype is restored by co-expression of the siRNA#3-resistant mis-match DR6 cDNA construct together with DR6 siRNA #3 (FIG. 4B). Presented experimental evidence establishes that DR6 receptor function is required for axonal degeneration and death of commissural neurons upon withdrawal from their intermediate target, the floorplate of the spinal cord.
# A dorsal spinal cord survival assay (as described in Example 2 above) was conducted using anti-DR6 antibodies. Microscopic observation (using green fluorescence channel for GFP) was employed to visualize commissural axons. […]
# [2] = test system: sensory axons; experiment: NGF deprivation assay in Campenot chambers (local sensory axon degeneration); assay type: cell-based, mouse; conditions: for sensory axonal degeneration induced by NGF withdrawal: 30 μg/ml hDR6-ECD-Fc in axonal compartment, 0 to 24 hours
# Method: Materials and methods used to generate the data shown in this figure are as follows. To examine whether ligand is required for DR6 function in sensory axonal degeneration, a compartmented culture analysis of sensory axon growth and degeneration was carried out as follows. A Campenot nerve cell chamber system was used to isolate neuronal processes (axons) from the cell bodies in different compartments (separate fluid environments), analogous to neuronal cell bodies in one location of the nervous system projecting their axons to a distal target in another location. The assay was carried out as originally described by Campenot (Campenot et al., J. Neurosci. 11(4): 1126-39 (1991)) with the following modifications. Briefly, 35-mm tissue culture dishes were coated with PDL/Laminin and scratched with a pin rake (Tyler Research) to generate tracks, as illustrated for example in FIGS. 1 and 4 of Campenot et al., supra.
# A drop of culture medium (Neurobasal medium with B27 supplement, 25 ng/ml of NGF, and 4 g/L of methylcellulose) was placed on the scratched substratum. A Teflon divider (Tyler Research) was seated on silicone grease and a dab of silicone grease was placed at the mouth of the center slot. Dissociated sensory neurons derived from E12.5 mouse DRGs were suspended in methylcellulose-thickened medium and loaded into a disposable sterile syringe fitted with a 22-gauge needle. This cell suspension was injected into the center slots of each compartmented dish under the dissecting microscope. The neurons were allowed to settle overnight. […]
# To trigger local axonal degeneration, NGF-containing medium from axonal compartments was substituted with neurobasal medium with an NGF blocking antibody (anti-NGF, Genentech, Inc., 20 ug/ml). Zero hours, 6 hours, or 24 to 48 hours following NGF deprivation, sensory neurons were fixed in 4% PFA for 30 minutes at room temperature and processed for immunofluorescence staining with axonal marker TUJ-1 (Covance, 1:500 dilution) to visualize degenerating axons by fluorescence microscopy (FIG. 11B) (as above described in Example 7). […]
# To examine whether ligand is required for DR6 function in axonal degeneration program triggered by NGF withdrawal, 30 μg/ml of hDR6-ECD-Fc immunoadhesin protein (described in Example 3 above) or 30 μg/ml of a control Fc (Genentech, Inc.) was included together with anti-NGF treatment in axonal compartments of Campenot Chambers. Zero to 24 hours after NGF deprivation, axons in Campenot Chambers were fixed with 4% PFA/PBS and visualized by immuno-fluorescence staining with TUJ-1 (1:500, Covance)/secondary antibody conjugated to a fluorescence group Alexa 488 (Molecular Probes, BD) (FIG. 11B). […]
# [3] = biological target: p75 (as used in the ELISA and in general statements); experiment: ELISA, format not described (data not shown)
# [4] = test system: DR6-AP binding sites on BAX null sensory axons; experiment: in situ DR6-AP sensory axon binding assay; assay type: cell-based, mouse; conditions: BACE inhibitor 1 uM; BAX null E12.5 sensory axons
# Method: For the in situ DR6-AP sensory axon binding assay, either wild-type or Bax null sensory explants were cultured in Neurobasal medium/B27 (Invitrogen) as outlined in the Examples 7-8 above, with 50 ng/mlNGF (Roche). Two days post-plating, DRG explants were either left untreated or deprived from NGF as described above in Examples 7-8. Bax inhibitory peptide was added where indicated on FIG. 12B (10 uM, Bax-V5, Tocris). Twelve hours post-NGF deprivation, DRG explants were washed twice with the binding buffer (HBSS, Gibco Cat. No. 14175-095, with 0.2% BSA, 0.1% NaN3, 5 mM CaCl2, 1 mM MgCl2, 20 mM HEPES, pH=7.0). AP binding assay was then carried out by making a 1:1 mixture of DR6-AP conditioned medium and the binding buffer (or control AP conditioned medium and the binding buffer), which was applied directly to DRG explants in 8-well culture slides (Becton, Dickinson and Company) and incubated for 90 minutes at room temperature.
# Following the incubation, unbound DR6-AP proteins were washed away by rinsing DRG explants five times with the binding buffer. DRG explants were then fixed with 3.7% formaldehyde diluted in PBS, for 12 minutes at room temperature. The remaining formaldehyde was removed by rinsing DRG explants 3 times with HBS buffer (20 mM HEPES pH=7.0, 150 mM NaCl). Endogenous AP activity was blocked by heat inactivation at 65° C. in HBS buffer for 30 minutes. […]
molecule,measurement,setting,value
5′-CAAUAGGUCAGGAAGAUGGCU-3′ [DR6-specific siRNA #3],axonal degeneration of commissural neurons,"[1]; siRNA electroporated, 48 hours in culture without floorplate trophic support",blocked
CC[C@H](C)[C@H](NC(=O)OCc1ccccc1)C(=O)N[C@@H](CCC(=O)OC)C(=O)N[C@H](C(=O)N[C@@H](CC(=O)OC)C(=O)CF)[C@@H](C)O [Z-IETD-FMK] (Cbz-IE(OMe)TD(OMe)-CH2F),axonal degeneration after NGF deprivation,"[2]; 24 hours anti-NGF, SP 600125 1 uM, Z-IETD-FMK 10 uM, Z-DEVD-FMK 10 uM",delayed
(L)-HIV-TAT48-57-PP-JBD20 [L-JNK-I],stereotyped degeneration of commissural neurons in DSC explant cultures,"[1]; JNK inhibitor at 10 μM, 48 hr, no trophic factor, listed as L-JNKI-1",largely blocks stereotyped degeneration
same,axonal degeneration of commissural neurons,[1]; peptide JNK inhibitor at 1 μM,partially blocked axonal degeneration
APP (as used in the p75 ELISA) (from UniProt P05067 18-286) (ligand),EC50,[3],300 nM
"Abeta: recombinant human Beta amyloid amino acids 1-42, Chemicon",induction of commissural axonal degeneration,[1]; Abeta 1-42 3 μM added 24 hours after plating with BACE inhibitor 1 uM,axonal degeneration triggered
OM99-2,axonal degeneration after NGF deprivation,[2]; BACE inhibitor 1 uM,blocked
same,disappearance of DR6-AP binding sites from sensory axons following NGF withdrawal,[4],block the disappearance of DR6-AP binding sites
"hDR6-ECD-Fc: human DR6 extracellular domain sequence fused with Fc, SEQ ID NO: 4",sensory axonal degeneration induced by NGF withdrawal,[2],delayed the onset of axonal degeneration
same,sensory axonal degeneration induced by NGF withdrawal,[2]; listed as DR6-Fc,delayed
same,commissural axon degeneration,"[1]; 30 μg/ml and 10 μg/ml hDR6-ECD-Fc, 48 hours",delayed
